Reference: US6525001B1, “Substituted pyrimidine and pyridine herbicides” (Mid-American Commercialization Corporation, priority 1997, dated 2003)

How the values were obtained:
Format in all cases: in vivo
Set-up in all cases: key: 0 is no effect; 10 is complete control
[1] = system: smallflower flatsedge (Cyperus difformis); experiment: Test B flood test
Summary of the method: (§1)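 Plants were grown to the 2-leaf stage before treatment with test chemical, then held in a greenhouse for twelve to sixteen days. Injury was visually rated against untreated controls on a 0–10 scale, where 0 is no effect and 10 is complete control.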

rice (Oryza sativa) = experiment: Test B flood test
Summary of the method: as §1

[2] = system: bamyardgrass (Echinochloa crus-galli); experiment: Test B flood test
Summary of the method: as §1

[3] = system: duck salad (Heteranthera limosa); experiment: Test B flood test
Summary of the method: as §1

[4] = system: momingglory (Ipomoea hederacea); experiment: Test B pre-/postemergence
Summary of the method: (§2)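 Seeds were planted and sprayed preemergence, while plants at 2 to 18 cm (1- to 4-leaf stage) were sprayed postemergence at the same time, with test chemical in a non-phytotoxic solvent mixture containing surfactant. After twelve to sixteen days in a greenhouse, injury was rated visually against untreated controls on a 0–10 scale.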

[5] = system: pigweed (Amaranthus retroflexus); experiment: Test B pre-/postemergence
Summary of the method: as §2

rape (Brassica napus) = experiment: Test B pre-/postemergence
Summary of the method: as §2

[6] = system: velvetleaf (Abutilon theophrasti); experiment: Test B pre-/postemergence
Summary of the method: as §2

[7] = system: cocklebur (Xanthium strumarium); experiment: Test B pre-/postemergence
Summary of the method: as §2

[8] = system: purple nutsedge (Cyperus rotundus); experiment: Test B pre-/postemergence
Summary of the method: as §2

[9] = system: broadleaf signalgrass (Brachiaria decumbens); experiment: Test B pre-/postemergence
Summary of the method: as §2

[10] = system: sugar beet (Beta vulgaris); experiment: Test B pre-/postemergence
Summary of the method: as §2

[11] = system: wheat (Triticum aestivum); experiment: Test B pre-/postemergence
Summary of the method: as §2

[12] = system: giant foxtail (Setaria faberii); experiment: Test B pre-/postemergence
Summary of the method: as §2

wild oat (Avena fatua) = experiment: Test B pre-/postemergence
Summary of the method: as §2

[13] = system: bedstraw (Galium aparine); experiment: Test B pre-/postemergence
Summary of the method: as §2

[14] = system: crabgrass (Digitaria sanguinalis); experiment: Test B pre-/postemergence
Summary of the method: as §2

soybean (Glycine max) = experiment: Test B pre-/postemergence
Summary of the method: as §2

[15] = system: blackgrass (Alopecurus myosuroides); experiment: Test B pre-/postemergence
Summary of the method: as §2

corn (Zea mays) = experiment: Test B pre-/postemergence
Summary of the method: as §2

[16] = Rate 62 g/ha, Postemergence (flood test)
[17] = Rate 125 g/ha, Postemergence, flood test
[18] = Rate 250 g/ha, Postemergence (flood test species)

Cc1cnc(-c2ccc(C(F)(F)F)cc2)nc1C(C)c1cccc(C(F)(F)F)c1 (racemic) [Compound 19]
5: Plant response rating, Redroot pigweed ([5]; Rate 125 g/ha, Postemergence)
1: Plant response rating, Velvetleaf ([6]; Rate 62 g/ha, Postemergence) | Plant response rating, B. signalgrass ([9]; Rate 62 g/ha, Postemergence) | Plant response rating, Giant foxtail ([12]; Rate 250 g/ha, Postemergence) | Plant response rating, Wild oats (wild oat (Avena fatua); Rate 125 g/ha, Postemergence) | Plant response rating, Crabgrass ([14]; Rate 62 g/ha, Postemergence) | Plant response rating, Blackgrass ([15]; Rate 62 g/ha, Postemergence) | Plant response rating, Blackgrass ([15]; Rate 125 g/ha, Postemergence) | Plant response rating, Blackgrass ([15]; Rate 250 g/ha, Postemergence) | Plant response rating, Corn (corn (Zea mays); Rate 62 g/ha, Postemergence)
2: Plant response rating, S. Flatsedge [1, 17] | Plant response rating, Rice (rice (Oryza sativa); [18]) | Plant response rating, Barnyardgrass [2, 17] | Plant response rating, Ducksalad [3, 17] | Plant response rating, Redroot pigweed ([5]; Rate 62 g/ha, Postemergence) | Plant response rating, Rape (rape (Brassica napus); Rate 62 g/ha, Postemergence) | Plant response rating, Rape (rape (Brassica napus); Rate 125 g/ha, Postemergence) | Plant response rating, Velvetleaf ([6]; Rate 125 g/ha, Postemergence) | Plant response rating, Velvetleaf ([6]; Rate 250 g/ha, Postemergence) | Plant response rating, Cocklebur ([7]; Rate 62 g/ha, Postemergence) | Plant response rating, B. signalgrass ([9]; Rate 125 g/ha, Postemergence) | Plant response rating, B. signalgrass ([9]; Rate 250 g/ha, Postemergence) | Plant response rating, Sugarbeets ([10]; Rate 62 g/ha, Postemergence) | Plant response rating, Wild oats (wild oat (Avena fatua); Rate 250 g/ha, Postemergence) | Plant response rating, Bedstraw ([13]; Rate 62 g/ha, Postemergence) | Plant response rating, Crabgrass ([14]; Rate 125 g/ha, Postemergence) | Plant response rating, Crabgrass ([14]; Rate 250 g/ha, Postemergence) | Plant response rating, Soybean (soybean (Glycine max); Rate 62 g/ha, Postemergence) | Plant response rating, Corn (corn (Zea mays); Rate 125 g/ha, Postemergence)
0: Plant response rating, S. Flatsedge [1, 16] | Plant response rating, Rice (rice (Oryza sativa); [16]) | Plant response rating, Rice (rice (Oryza sativa); [17]) | Plant response rating, Barnyardgrass [2, 16] | Plant response rating, Ducksalad [3, 16] | Morningglory plant response rating ([4]; Rate 62 g/ha, Preemergence) | Morningglory plant response rating ([4]; Rate 125 g/ha, Preemergence) | Plant response rating, Morningglory ([4]; Rate 250 g/ha, Preemergence) | Redroot pigweed plant response rating ([5]; Rate 62 g/ha, Preemergence) | Redroot pigweed plant response rating ([5]; Rate 125 g/ha, Preemergence) | Plant response rating, Redroot pigweed ([5]; Rate 250 g/ha, Preemergence) | Rape plant response rating (rape (Brassica napus); Rate 62 g/ha, Preemergence) | Rape plant response rating (rape (Brassica napus); Rate 125 g/ha, Preemergence) | Plant response rating, Rape (rape (Brassica napus); Rate 250 g/ha, Preemergence) | Velvetleaf plant response rating ([6]; Rate 62 g/ha, Preemergence) | Velvetleaf plant response rating ([6]; Rate 125 g/ha, Preemergence) | Plant response rating, Velvetleaf ([6]; Rate 250 g/ha, Preemergence) | Cocklebur plant response rating ([7]; Rate 62 g/ha, Preemergence) | Plant response rating, Cocklebur ([7]; Rate 250 g/ha, Preemergence) | Plant response rating, Nutsedge ([8]; Rate 62 g/ha, Postemergence) | Nutsedge plant response rating ([8]; Rate 62 g/ha, Preemergence) | Plant response rating, Nutsedge ([8]; Rate 125 g/ha, Postemergence) | Nutsedge plant response rating ([8]; Rate 125 g/ha, Preemergence) | Plant response rating, Nutsedge ([8]; Rate 250 g/ha, Postemergence) | Plant response rating, Nutsedge ([8]; Rate 250 g/ha, Preemergence) | B. signalgrass plant response rating ([9]; Rate 62 g/ha, Preemergence) | B. signalgrass plant response rating ([9]; Rate 125 g/ha, Preemergence) | Plant response rating, B. signalgrass ([9]; Rate 250 g/ha, Preemergence) | Sugarbeets plant response rating ([10]; Rate 62 g/ha, Preemergence) | Sugarbeets plant response rating ([10]; Rate 125 g/ha, Preemergence) | Plant response rating, Sugarbeets ([10]; Rate 250 g/ha, Preemergence) | Plant response rating, Wheat ([11]; Rate 62 g/ha, Postemergence) | Wheat plant response rating ([11]; Rate 62 g/ha, Preemergence) | Plant response rating, Wheat ([11]; Rate 125 g/ha, Postemergence) | Wheat plant response rating ([11]; Rate 125 g/ha, Preemergence) | Plant response rating, Wheat ([11]; Rate 250 g/ha, Postemergence) | Plant response rating, Wheat ([11]; Rate 250 g/ha, Preemergence) | Plant response rating, Giant foxtail ([12]; Rate 62 g/ha, Postemergence) | Giant foxtail plant response rating ([12]; Rate 62 g/ha, Preemergence) | Plant response rating, Giant foxtail ([12]; Rate 125 g/ha, Postemergence) | Giant foxtail plant response rating ([12]; Rate 125 g/ha, Preemergence) | Plant response rating, Giant foxtail ([12]; Rate 250 g/ha, Preemergence) | Plant response rating, Wild oats (wild oat (Avena fatua); Rate 62 g/ha, Postemergence) | Wild oats plant response rating (wild oat (Avena fatua); Rate 62 g/ha, Preemergence) | Wild oats plant response rating (wild oat (Avena fatua); Rate 125 g/ha, Preemergence) | Plant response rating, Wild oats (wild oat (Avena fatua); Rate 250 g/ha, Preemergence) | Bedstraw plant response rating ([13]; Rate 62 g/ha, Preemergence) | Bedstraw plant response rating ([13]; Rate 125 g/ha, Preemergence) | Plant response rating, Bedstraw ([13]; Rate 250 g/ha, Preemergence) | Crabgrass plant response rating ([14]; Rate 62 g/ha, Preemergence) | Crabgrass plant response rating ([14]; Rate 125 g/ha, Preemergence) | Plant response rating, Crabgrass ([14]; Rate 250 g/ha, Preemergence) | Soybean plant response rating (soybean (Glycine max); Rate 62 g/ha, Preemergence) | Soybean plant response rating (soybean (Glycine max); Rate 125 g/ha, Preemergence) | Plant response rating, Soybean (soybean (Glycine max); Rate 250 g/ha, Preemergence) | Blackgrass plant response rating ([15]; Rate 62 g/ha, Preemergence) | Blackgrass plant response rating ([15]; Rate 125 g/ha, Preemergence) | Plant response rating, Blackgrass ([15]; Rate 250 g/ha, Preemergence) | Corn plant response rating (corn (Zea mays); Rate 62 g/ha, Preemergence) | Corn plant response rating (corn (Zea mays); Rate 125 g/ha, Preemergence) | Plant response rating, Corn (corn (Zea mays); Rate 250 g/ha, Preemergence)
7: Plant response rating, Ducksalad [3, 18] | Plant response rating, Redroot pigweed ([5]; Rate 250 g/ha, Postemergence)
3: Plant response rating, Barnyardgrass [2, 18] | Plant response rating, Morningglory ([4]; Rate 62 g/ha, Postemergence) | Plant response rating, Morningglory ([4]; Rate 125 g/ha, Postemergence) | Plant response rating, Rape (rape (Brassica napus); Rate 250 g/ha, Postemergence) | Plant response rating, Cocklebur ([7]; Rate 125 g/ha, Postemergence) | Plant response rating, Cocklebur ([7]; Rate 250 g/ha, Postemergence) | Plant response rating, Bedstraw ([13]; Rate 125 g/ha, Postemergence) | Plant response rating, Bedstraw ([13]; Rate 250 g/ha, Postemergence) | Plant response rating, Soybean (soybean (Glycine max); Rate 125 g/ha, Postemergence) | Plant response rating, Corn (corn (Zea mays); Rate 250 g/ha, Postemergence)
4: Plant response rating, Sugarbeets ([10]; Rate 125 g/ha, Postemergence) | Plant response rating, Soybean (soybean (Glycine max); Rate 250 g/ha, Postemergence)
6: Plant response rating, S. Flatsedge [1, 18] | Plant response rating, Morningglory ([4]; Rate 250 g/ha, Postemergence) | Plant response rating, Sugarbeets ([10]; Rate 250 g/ha, Postemergence)
